# Earlier results as cited in US20090136558A1, “Anti-Restenosis Coatings and Uses Thereof” (VASOTECH, INC., priority 2004, published 2009).
# Details: through specific binding to individual binding proteins
smiles,measurement,value
"CO[C@H]1C[C@@H]2CC[C@@H](C)[C@@](O)(O2)C(=O)C(=O)N2CCCC[C@H]2C(=O)O[C@H]([C@H](C)C[C@@H]2CC[C@@H](O)[C@H](OC)C2)CC(=O)[C@H](C)/C=C(\C)[C@@H](O)[C@@H](OC)C(=O)[C@H](C)C[C@H](C)/C=C/C=C/C=C/1C [sirolimus, Sirolimus]",retention in blood vessel wall after releasing from stent,retained well in blood vessel wall for up to three days
